From patent US20210393614A1, “QUINONE REDUCTASE 2 INHIBITORS FOR USE AS NEUROPROTECTIVE AGENTS” (DUKE UNIVERSITY, priority 2018, published 2021)

Experiments:
[1] = target: T1, QR2 (Homo sapiens, UniProt P16083); experiment: Inhibition of QR2 (IC50, Table 1); type: biochemical; settings: for LiPE (pIC50-clogP): lipophilic efficiency, QR2 pIC50 minus clog P; for IC50: inhibitors of QR2, mean +/− SD
T1 sequence (P16083 1-231): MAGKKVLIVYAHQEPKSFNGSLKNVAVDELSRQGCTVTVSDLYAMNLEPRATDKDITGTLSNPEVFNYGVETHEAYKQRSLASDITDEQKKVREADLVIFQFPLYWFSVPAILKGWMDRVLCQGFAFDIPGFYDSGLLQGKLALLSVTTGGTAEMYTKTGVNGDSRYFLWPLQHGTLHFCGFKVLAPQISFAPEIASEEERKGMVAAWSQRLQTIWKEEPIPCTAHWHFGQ

[2] = tested on: transient middle cerebral artery (MCA) occlusion; experiment: Mouse model of transient middle cerebral artery (MCA) occlusion; type: in vivo
[3] = during therapeutic dosing; cited from earlier work
[4] = tested on: vascular dementia (BCAS mice); experiment: Murine model of vascular dementia (BCAS); type: in vivo; settings: for Morris water maze escape latency: versus vehicle, n=10
Experimental: Vascular dementia is caused by chronic cerebral hypoperfusion and is characterized clinically by white matter lesions on MRI and a decline in executive function. […] Physiological, cellular, and functional outcomes were determined using a combination of quantitative immunochemistry, MRI, and behavioral tasks including Morris water maze and rotorod.

[5] = tested on: CPB/DHCA perioperative cerebral injury; experiment: Rat model of cardiopulmonary bypass (CPB)/deep hypothermic circulatory arrest (DHCA); type: in vivo, Sprague-Dawley rats; settings: for apoptotic and necrotic neurons in cortex and hippocampus: 25 mg/kg, 48 hours after DHCA, FIG. 6, FIG. 7; for decrease in post-operative blood brain barrier permeability (gadolinium chelate, MRI): compared to respective control groups, p<0.05, preliminary results
Experimental: Perioperative cerebral injury (PCI) following major cardiovascular surgery using cardiopulmonary bypass (CPB) and deep hypothermic circulatory arrest (DHCA) remains a significant cause of adverse cerebral outcome. […] Cannulas were placed in the tail artery and the right external jugular vein. Animals were then cooled on CPB for 30 minutes, and DHCA was instituted at a pericranial temperature of 16-18° C. […] MRI was performed on day-1 post-operatively, neurological assessments on day 1 and 2 post-operatively, and animals then sacrificed after day 2.

[6] = tested on: permanent MCA occlusion model; settings: cited from earlier work
[7] = in vivo
[8] = tested on: intracranial hemorrhagic injury; experiment: Mouse model of intracranial hemorrhagic injury; type: in vivo; settings: single 25 mg/kg i.p. dose
[9] = tested on: TBI model of diffuse closed head injury; experiment: Murine TBI model of diffuse closed head injury; type: in vivo; settings: single 25 mg/kg administration, n=12/gp
Description: The neuroprotective potential of QR2 inhibition was investigated in a murine TBI model of diffuse closed head injury (Laskowitz et al., “Neuroprotective pentapeptide CN-105 is associated with reduced sterile inflammation and improved functional outcomes in a traumatic brain injury murine model.” Sci. Rep. 2017 Apr. 21; 7:46461).

Row | Structure (SMILES) | LiPE (pIC50-clogP) [1] | IC50 [1] | Morris water maze escape latency [4] | apoptotic and necrotic neurons in cortex and hippocampus [5] | decrease in post-operative blood brain barrier permeability (gadolinium chelate, MRI) [5] | also measured
1 | CCN(CC)CCCC(C)Nc1ccnc2cc(Cl)ccc12 (stereo not shown) [chloroquine] | – | – | performance profile similar to their N-MCQ counterparts | fewer apoptotic and necrotic neurons | 3% | stroke evolution between 4 and 24 hours by DW-MRI ([2]; single i.p. 25 mg/kg 90 minutes after ischemia onset): reduction in stroke evolution; reduction in overall stroke volume ([2]; single i.p. 25 mg/kg 90 minutes after ischemia onset, post-mortem histology at 72 hours): 55%; plasma concentration [3]: < 1000 nM; reduction of stroke volumes [6]: 60%
2 | CNc1ccnc2cc(Cl)ccc12 [7C-4MAQ, 7-chloro-N-methylquinolin-4-amine] | 4.67 | – | decreased escape latencies compared to vehicle controls | fewer apoptotic and necrotic neurons | 3% | reductions in cortical stroke volumes relative to those after CQ ([2]; equivalent single acute phase dose 25 mg/kg, FIG. 3C): ~2 ×; LD50 relative to the 25 mg/kg dose [7]: more than 20 times; improvement in motor function (rotorod assessment) [8]: 21%; Morris water maze probe trial, time in target quadrant ([4]; p<0.05 group effect): significantly more time in the target quadrant; neurological scores at post-op day 1 and 2 ([5]; 25 mg/kg 2 hours before CPB/DHCA, FIG. 8): significantly improved neurological scores; improvement in Morris water maze performance ([9]; 1 month following injury): 62%; improvement over vehicle in rotorod latency [9]: 20%
3 | COc1cc(NC(C)c2ccco2)c2ncccc2c1 (stereo not shown) [Example Compound C, N-[1-(furan-2-yl)ethyl]-6-methoxyquinolin-8-amine] | 3.42 | 0.85 µM | – | – | – | –

The next lines start with results.

Row | LiPE (pIC50-clogP) [1] | IC50 [1] | Structure (SMILES) | Morris water maze escape latency [4] | apoptotic and necrotic neurons in cortex and hippocampus [5] | decrease in post-operative blood brain barrier permeability (gadolinium chelate, MRI) [5] | also measured
4 | 4.30 | – | COc1cc(NCc2ccccn2)c2ncccc2c1 [Example Compound B, 6-methoxy-N-(pyridin-2-ylmethyl)quinolin-8-amine] | – | – | – | –
5 | 2.71 | 0.55 µM | Clc1ccc2c(Nc3ccccn3)ccnc2c1 [Example Compound D, 7-chloro-N-(pyridin-2-yl)quinolin-4-amine] | – | – | – | –
6 | 1.65 | 2.7 µM | Oc1ccc(CCNc2ccnc3cc(Cl)ccc23)cc1 [Example Compound A, 4-{2-[(7-chloroquinolin-4-yl)amino]ethyl}phenol] | – | – | – | –
